How the values were obtained:
[1] = tested on: p-MAPKAPK2; assay: Inhibition of p-MAPKAPK2 in vitro, anisomycin-stimulated RAW 264.7 cells, ELISA; assay type: cell-based, murine; details: Mus musculus, RAW264.7, read-out: IC50, inhibition of p-MAPKAPK2 in vitro
Procedure: RAW 264.7 cells (a murine monocytic/macrophage line ATCC) are seeded at a density of 50,000 cells/well in 96-well plates with RPMI-1640 medium plus 10% fetal bovine serum (FBS) and allowed to settle and adhere to the bottom of the well for 48 hours. After reaching confluence, cells are treated for 2 hours with 10 serial dilutions of different compounds. A control compound is always included. After 2 hours, anisomicin (100 ug/ml) is added and cells are incubated for 30 minutes at 37° C. under a 5% CO2 atmosphere. Then, cells are fixed and treated with hydrogen peroxide in order to remove endogenous peroxidase. Finally, plates are blocked with FBS, washed, and an ELISA assay is carried out by using an antiphospho-MAPKAPK (Thr 334, Cell Signalling, Cat # 3041) antibody and ahP-Conjugated Secondary Antibody. This reaction is detected by using FEMTO (Pierce) which is an enhanced chemiluminiscent substrate ahP that results in rapid kinetic light output and high signal intensity.

[2] = tested on: Phospho-MAPKAPK2; assay: Anisomycin-stimulated mice ex-vivo phospho-MAPKAPK2 inhibition assay by flow cytometry; assay type: in vivo; details: female Balb/c mice, po, blood after 2 hours, ex vivo 10 μg/ml anisomycin, CD11b+Ly6G- cells
Procedure: Female Balb/c mice with 8-10 week-old age are purchased from Taconic Inc. and dosed po with 0.2 mL volume of compounds at the concentrations of 30, 10, 3, 1 mg/kg. Blood is obtained from cardiac puncture after 2 hours or other indicated time periods and collected in EDTA-containing tubes. 100 μL of blood is incubated at 37° C. for 10 minutes. Whole blood is then mixed with FITC-conjugated rat anti-mouse Ly-6G mAb (1:250) and APC-conjugated rat anti-mouse CD11b mAb (1:100) and stimulated with 10 μg/ml anisomycin. Both cell surface antigen staining and anisomycin stimulation is conducted at 37° C. for 15 min and followed up with Lyse/Fix buffer (BD Biosciences, Cat#558049) for 10 min at room temperature. Lysed blood samples are spun down at 600×g for 8 minutes at room temperature with additional wash once by 4 mL PBS. 200 μL of diluted anti-Phospho-MAPKAPK-2 (Thr334) antibody (1:100 dilution) (Cell Signaling, Cat#3041) and mouse BD Fc Block (1:100 dilution) (BD Biosciences, 553141) in permeabilization Medium B (Caltag, Catg GAS002S-5) are added into blood cells and incubate at room temperature for 30 minutes. After the incubation, 3 mL of stain/wash buffer is added and cells are spanned down as described above with additional wash with 3 ml stain/wash buffer. […] Mean fluorescence of phosphono-MapKap-K2 staining is measured on gated CD11b+Ly6G-cells. […]

[3] = tested on: TNFα; assay: Effect on intra-articular LPS induced TNFα in rat ankle synovial lavage fluid; assay type: in vivo; details: female Lewis rats, orally, intra-articular LPS 10 μg one hour later, lavage after two hours
Procedure: Intra-articular injection of LPS into rat ankles induces the synthesis of TNFα, which can be measured in synovial lavage fluid. High levels of TNFα are detectable within 2 hours. Since the joint is the site where arthritis develops, this model can rapidly determine whether an orally administered compound has an effect on an inflammatory response in the synovium.
Six female Lewis rats (150-200 g) are place in each treatment group. The animals are given vehicle (1% NaCarboxymethylcellulose-0.25% Tween 80) or test compound
(1 mg/kg, 3 mg/kg, 10 mg/kg, and 30 mg/kg) orally. One hour later, 10 μl LPS (10 μg) is administered intra-articularly into the right ankle of each rat, while the left ankle receives 10 μL of saline. After two hours, each ankle is lavaged with 100 μL of saline. The lavage is collected and stored at −80° C. • Group #1: Vehicle (1% NaCMC-0.25% Tween 80, 1 mL, PO) • Group #2: Test compound (1 mg/kg, 1 mL, PO) • Group #3: Test compound (3 mg/kg, 1 mL, PO) • Group #4: Test compound (10 mg/kg, 1 mL, PO) • Group #5: Test compound (30 mg/kg, 1 mL, PO)
TNFα is measured with a commercially available ELISA kit (R&D, RTA00).

[4] = tested on: TNFα; assay: Inhibition of TNFα in vivo, LPS challenged mice, plasma ELISA; details: female Balb/c mice, p.o., LPS IP 400 μg/kg 1 hour after compound, plasma 1.5 hours after LPS
Procedure: Compounds are administered p.o. (30, 10, 3 and 1 mg/kg) to female Balb/c mice (6 mice/dose). 1 hour following compound administration at 4 doses (P.O. at volume of 0.1 mL/mouse; vehicle: 1% NaCMC/0.25% Tween-80 in water); mice are given an IP-injection of LPS at 400 μg/kg. 1.5 hours after LPS challenging, mice are anesthetized with isoflurane and blood is taken via cardiac puncture. TNFα-levels in the plasma are determined using ELISA kit from R&D Systems and dose response ED50 is determined.
The Threshold Minimum Effective Dose (TMED) 50 is the dose at which greater than or equal to 50% inhibition was achieved and statistically different from control/placebo.

[5] = Oral exposure in male Fischer 344 rats; assay type: in vivo; details: rat, 1 mg/kg, fasted, gavage, suspension 1 mg/mL at 1 mL/kg, plasma
Procedure: Compounds are screened for oral exposure in male Fischer 344 rats. Animals are fasted overnight and administered test compounds prepared as suspensions in sodium carboxymethylcellulose (1% w/v) containing Tween 80 (0.25% v/v) and antifoam (0.1% w/v). Dose suspensions are prepared at 1 mg/mL and administered at 1 mL/kg by gavage. Blood samples are taken between 0.5 h and 7 h after dose administration and plasma are prepared by centrifugation. Plasma samples are analyzed using online solid phase extraction and LC/MS/MS.

CS(=O)(=O)O.Cc1ccc(-n2nc(C(C)(C)C)cc2NC(=O)Nc2ccc(N3CCN(C(=O)c4c(F)cccc4F)CC3)nc2C)cc1 [Example 5, 1-(5-tert-Butyl-2-p-tolyl-2H-pyrazol-3-yl)-3-{6-[4-(2,6-difluoro-benzoyl)-piperazin-1-yl]-2-methyl-pyridin-3-yl}-urea methanesulfonate]
IC50 [1]: 4.5 nM
TMED50, inhibition of p-MAPKAPK synthesis [2]: 2.28 mg/kg
TMED50, inhibition of TNFα synthesis in synovial lavage fluid [3]: 3.57 mg/kg
TMED50, suppression of TNFα in vivo [4]: 2.24 mg/kg
Cmax [5]: 9390 ng/mL
AUC(0-t) ([5]; read-out: AUC(0-7h)): 36800 ng·h/mL
